Measured values reported in patent US10174016B2 (BAYER AKTIENGESELLSCHAFT, priority 2014, dated 2019).
pIC50: −log10 of the molar value. Read-outs that look alike come from different tables or passages of the source.

Experiments:
human P2X3 receptor = human P2X3 receptor (Homo sapiens (Human), UniProt P56373); assay: Intracellular calcium measurement (FLIPR, Fluo-4) of antagonist activity at human P2X3 receptors; type: cell-based; details: read-out: hP2X3 IC50
Protocol: (§1) Intracellular Calcium Measurement to Assess Antagonist Activity at Human P2X3 and Human P2X2/3 Receptors
(§2) A fluorescent imaging plate reader (FLEX/FLIPR station; Molecular Devices) was used to monitor intracellular calcium levels using the calcium-chelating dye Fluo-4 (Molecular Probes). […] Cells expressing purinergic receptors P2X3 (human) or P2X2/3 (human) were plated at a density of 15,000 cells/well in collagen-coated 384-well plates approximately 20 hours before beginning the assay. […] The test compound was added in a volume of 5 μl and allowed to incubate for 30 min at 37° C. The final assay DMSO concentration is 1%. The agonist, α,β-Me-ATP, was added in a volume of 20 μl at a concentration representing the EC80 value. The fluorescence was measured for an interval of 90 sec at 2 sec intervals and analyzed based on the increase in peak relative fluorescence units (RFU) compared to the basal fluorescence. Peak fluorescence was used to determine the response to agonist obtained at each concentration of test compound by the following equation: % Response=100*(RFU(test compound)−RFU(control)/RFU(DMSO)−RFU(control))
(§3) The Examples were tested in triplicates per plate and mean values were plotted in Excel XLFit to determine IC50 values at the human P2X3 and human P2X2/3 receptors, percentage of maximal inhibition and the Hill coefficients.

human P2X2/3 receptor = human P2X2/3 receptor (Homo sapiens (Human), UniProt P56373+Q9UBL9); assay: Intracellular calcium measurement (FLIPR, Fluo-4) of antagonist activity at human P2X2/3 receptors; type: cell-based; details: human P2X2/3, FLIPR calcium assay, agonist α,β-Me-ATP; read-out: hP2X2/3 IC50
Chain of human P2X2/3 receptor (P56373 whole entry): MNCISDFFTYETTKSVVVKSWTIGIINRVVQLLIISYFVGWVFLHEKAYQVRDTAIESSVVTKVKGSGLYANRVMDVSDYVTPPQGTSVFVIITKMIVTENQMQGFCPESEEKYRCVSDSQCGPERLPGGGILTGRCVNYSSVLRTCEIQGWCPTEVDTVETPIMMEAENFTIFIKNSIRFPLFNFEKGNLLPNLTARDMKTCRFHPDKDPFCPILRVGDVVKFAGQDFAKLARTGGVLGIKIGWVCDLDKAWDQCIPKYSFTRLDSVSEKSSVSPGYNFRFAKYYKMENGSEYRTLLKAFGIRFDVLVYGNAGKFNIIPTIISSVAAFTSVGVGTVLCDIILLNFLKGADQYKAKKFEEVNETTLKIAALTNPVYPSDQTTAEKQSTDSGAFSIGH
Chain of human P2X2/3 receptor (Q9UBL9 whole entry): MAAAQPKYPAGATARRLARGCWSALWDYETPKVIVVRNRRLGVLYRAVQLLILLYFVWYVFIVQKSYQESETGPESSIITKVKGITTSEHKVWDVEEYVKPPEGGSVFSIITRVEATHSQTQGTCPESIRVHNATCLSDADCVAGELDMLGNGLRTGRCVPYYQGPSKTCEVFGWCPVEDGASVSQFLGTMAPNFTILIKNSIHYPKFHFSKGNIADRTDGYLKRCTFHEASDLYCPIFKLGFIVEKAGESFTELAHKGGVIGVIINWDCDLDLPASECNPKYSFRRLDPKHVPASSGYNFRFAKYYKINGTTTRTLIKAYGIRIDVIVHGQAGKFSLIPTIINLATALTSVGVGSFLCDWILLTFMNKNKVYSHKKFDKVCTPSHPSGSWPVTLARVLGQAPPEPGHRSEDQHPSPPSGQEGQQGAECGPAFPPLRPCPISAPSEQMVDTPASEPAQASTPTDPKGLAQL
Protocol: as §1, §2, §3

[1] = human P2X3, FLIPR calcium assay, agonist α,β-Me-ATP

Chain of human P2X3 receptor (P56373 whole entry): as the sequence (P56373 whole entry) above

pIC50 (human P2X3 receptor; [1]) | pIC50 (human P2X2/3 receptor) | SMILES | pIC50 (human P2X3 receptor)
8.30 | 7.06 | Cc1cnc(-c2cc(OC3CCNC(C(F)(F)F)C3)cc(C(=O)N[C@H](C)c3cnc(C(F)(F)F)nc3)c2)s1 (single isomer, unassigned) [Example 207] | –
8.70 | 7.05 | Cc1cnc(-c2cc(OC3CCNC(C(F)(F)F)C3)cc(C(=O)N[C@H](C)c3cnc(C(F)(F)F)nc3)c2)s1 (single isomer, unassigned) [Example 208] | –
8.05 | 6.02 | Cc1cnc(-c2cc(OC[C@]3(F)CCCNC3)cc(C(=O)NC(C)c3cnc(C(F)(F)F)nc3)c2)s1 (single isomer, unassigned) [Example 355] | –
7.89 | 6.36 | Cc1cnc(-c2cc(OCC3CN(C(C)C)CCO3)cc(C(=O)N[C@H](C)c3cnc(C(F)(F)F)nc3)c2)s1 (stereo in doubt) [Example 382, 3-(5-methyl-1,3-thiazol-2-yl)-5-{[(2R)-4-(propan-2-yl)morpholin-2-yl]methoxy}-N-{(1R)-1-[2-(trifluoromethyl)pyrimidin-5-yl]ethyl}benzamide] | –
8.15 | 6.73 | Cc1ncc([C@@H](C)NC(=O)c2cc(OCC3CC3)cc(-c3ncc(C)s3)c2)cn1 [Example 10, 3-(Cyclopropylmethoxy)-N-[(1R)-1-(2-methylpyrimidin-5-yl)ethyl]-5-(5-methyl-1,3-thiazol-2-yl)benzamide] | –
– | 6.25 | Cc1cnc(-c2cc(OC3CCNCC3)cc(C(=O)N[C@H](C)c3cnc(C(F)(F)F)nc3)c2)s1 [Example 138, 3-(5-Methyl-1,3-thiazol-2-yl)-5-(piperidin-4-yloxy)-N-{(1R)-1-[2-(trifluoromethyl)pyrimidin-5-yl]ethyl}benzamide] | –
– | 6.79 | Cc1cnc(-c2cc(OC3(C)COC3)cc(C(=O)N[C@H](C)c3cnc(C(F)(F)F)nc3)c2)s1 [Example 156, 3-[(3-methyloxetan-3-yl)oxy]-5-(5-methyl-1,3-thiazol-2-yl)-N-{(1R)-1-[2-(trifluoromethyl)pyrimidin-5-yl]ethyl}benzamide] | –
– | 5.91 | Cc1cnc(-c2cc(OCCn3cncn3)cc(C(=O)N[C@H](C)c3cnc(C(F)(F)F)nc3)c2)s1 [Example 159, 3-(5-methyl-1,3-thiazol-2-yl)-5-[2-(1H-1,2,4-triazol-1-yl)ethoxy]-N-{(1R)-1-[2-(trifluoromethyl)pyrimidin-5-yl]ethyl}benzamide] | –
– | 6.05 | Cc1cnc(-c2cc(OC[C@H]3COCCO3)cc(C(=O)N[C@H](C)c3ccc(C(F)(F)F)nc3)c2)s1 [Example 177, 3-[(2R)-1,4-dioxan-2-ylmethoxy]-5-(5-methyl-1,3-thiazol-2-yl)-N-{(1R)-1-[6-(trifluoromethyl)pyridin-3-yl]ethyl}benzamide] | –
7.82 | – | Cc1cnc(-c2cc(OCC34CNC(CO3)C4)cc(C(=O)N[C@H](C)c3cnc(C(F)(F)F)nc3)c2)s1 (stereo partly drawn) [Example 407, 3-(5-Methyl-1,3-thiazol-2-yl)-5-[2-oxa-5-azabicyclo[2.2.1]hept-1-ylmethoxy]-N-{(1R)-1-[2-(trifluoromethyl)pyrimidin-5-yl]ethyl}benzamide] | –

More lines, now with the values behind:

SMILES | pIC50 (human P2X3 receptor; [1]) | pIC50 (human P2X2/3 receptor) | pIC50 (human P2X3 receptor)
Cc1cnc(-c2cc(OCC3CC3)cc(C(=O)NC(C)c3ncc(F)cc3Cl)c2)s1 (racemic) [Example 5, N-[1-(3-Chloro-5-fluoropyridin-2-yl)ethyl]-3-(cyclopropylmethoxy)-5-(5-methyl-1,3-thiazol-2-yl)benzamide] | 7.80 | 6.46 | –
Cc1cnc(-c2cc(OCC3CC3)cc(C(=O)NC(C)c3ncc(Cl)cc3F)c2)s1 (racemic) [Example 6, N-[1-(5-Chloro-3-fluoropyridin-2-yl)ethyl]-3-(cyclopropylmethoxy)-5-(5-methyl-1,3-thiazol-2-yl)benzamide] | 8.40 | 7.42 | –
Cc1cnc(-c2cc(OC3COC3)cc(C(=O)NC(C)c3nnc(C(F)(F)F)s3)c2)s1 (single isomer, unassigned) [Example 193, 3-(5-Methyl-1,3-thiazol-2-yl)-5-(oxetan-3-yloxy)-N-{1-[5-(trifluoromethyl)-1,3,4-thiadiazol-2-yl]ethyl}benzamide] | 5.57 | ≤ 5.00 | –
Cc1cnc(-c2cc(OC3COC3)cc(C(=O)NC(C)c3nnc(C(F)(F)F)s3)c2)s1 (single isomer, unassigned) [Example 194, 3-(5-Methyl-1,3-thiazol-2-yl)-5-(oxetan-3-yloxy)-N-{1-[5-(trifluoromethyl)-1,3,4-thiadiazol-2-yl]ethyl}benzamide] | 7.34 | 6.24 | –
Cc1cnc(-c2cc(OCC3CCOC3)cc(C(=O)NC(C)c3ncc(F)cc3Cl)c2)s1 (stereo in doubt) [Example 69, N-[1-(3-Chloro-5-fluoropyridin-2-yl)ethyl]-3-(5-methyl-1,3-thiazol-2-yl)-5-[(3R)-tetrahydrofuran-3-ylmethoxy]benzamide] | 7.82 | 6.03 | –
Cc1ccc(CNC(=O)c2cc(OCC3CC3)cc(-c3ncc(C)s3)c2)nn1 [Example 2, 3-(Cyclopropylmethoxy)-N-[(6-methylpyridazin-3-yl)methyl]-5-(5-methyl-1,3-thiazol-2-yl)benzamide] | 7.72 | 6.60 | –
Cc1cnc(CNC(=O)c2cc(OCC3CC3)cc(-c3ncc(C)s3)c2)cn1 [Example 3, 3-(Cyclopropylmethoxy)-N-[(5-methylpyrazin-2-yl)methyl]-5-(5-methyl-1,3-thiazol-2-yl)benzamide] | 7.59 | 5.96 | –
Cc1cnc([C@@H](C)NC(=O)c2cc(OCC3CC3)cc(-c3ncc(C)s3)c2)cn1 [Example 4, 3-(Cyclopropylmethoxy)-N-[(1R)-1-(5-methylpyrazin-2-yl)ethyl]-5-(5-methyl-1,3-thiazol-2-yl)benzamide] | 8.05 | 7.01 | –
Cc1cnc(-c2cc(OCC3CC3)cc(C(=O)N[C@H](C)c3nnc(C)s3)c2)s1 [Example 7, 3-(Cyclopropylmethoxy)-N-[(1R)-1-(5-methyl-1,3,4-thiadiazol-2-yl)ethyl]-5-(5-methyl-1,3-thiazol-2-yl)benzamide] | 8.10 | 6.97 | –
Cc1ccc([C@@H](C)NC(=O)c2cc(OCC3CC3)cc(-c3ncc(C)s3)c2)nn1 [Example 8, 3-(Cyclopropylmethoxy)-N-[(1R)-1-(6-methylpyridazin-3-yl)ethyl]-5-(5-methyl-1,3-thiazol-2-yl)benzamide] | 8.52 | 7.05 | –
Cc1cnc(-c2cc(OCC3CC3)cc(C(=O)N[C@H](C)c3ccc(C(F)(F)F)nn3)c2)s1 [Example 9, 3-(Cyclopropylmethoxy)-5-(5-methyl-1,3-thiazol-2-yl)-N-{(1R)-1-[6-(trifluoromethyl)pyridazin-3-yl]ethyl}benzamide] | 8.15 | 6.84 | –
Cc1cnc(CNC(=O)c2cc(O[C@@H]3CCOC3)cc(-c3ncc(C)s3)c2)cn1 [Example 12, N-[(5-methylpyrazin-2-yl)methyl]-3-(5-methyl-1,3-thiazol-2-yl)-5-[(3R)-tetrahydrofuran-3-yloxy]benzamide] | – | ≤ 5.00 | 6.55
C#CCOc1cc(C(=O)NCc2ncc(Cl)cc2F)cc(-c2ncc(C)s2)c1 [Example 32, N-[(5-Chloro-3-fluoropyridin-2-yl)methyl]-3-(5-methyl-1,3-thiazol-2-yl)-5-(prop-2-yn-1-yloxy)benzamide] | 7.62 | – | –
C#CCOc1cc(C(=O)N[C@H](C)c2ccc(C)nn2)cc(-c2ncc(C)s2)c1 [Example 37, N-[(1R)-1-(6-Methylpyridazin-3-yl)ethyl]-3-(5-methyl-1,3-thiazol-2-yl)-5-(prop-2-yn-1-yloxy)benzamide] | – | 5.93 | –
Cc1ccc([C@@H](C)NC(=O)c2cc(OC3COC3)cc(-c3ncc(C)s3)c2)cn1 [Example 51, N-[(1R)-1-(6-methylpyridin-3-yl)ethyl]-3-(5-methyl-1,3-thiazol-2-yl)-5-(oxetan-3-yloxy)benzamide] | – | 5.86 | –
Cc1ccc(CNC(=O)c2cc(OC[C@@H]3CCCO3)cc(-c3ncc(C)s3)c2)nn1 [Example 54, N-[(6-Methylpyridazin-3-yl)methyl]-3-(5-methyl-1,3-thiazol-2-yl)-5-[(2S)-tetrahydrofuran-2-ylmethoxy]benzamide] | – | ≤ 5.00 | –
Cc1cnc(-c2cc(OC3CCOCC3)cc(C(=O)N[C@H](C)c3ccc(C(F)(F)F)nn3)c2)s1 [Example 89, 3-(5-Methyl-1,3-thiazol-2-yl)-5-(tetrahydro-2H-pyran-4-yloxy)-N-{(1R)-1-[6-(trifluoromethyl)pyridazin-3-yl]ethyl}benzamide] | – | 6.70 | –
Cc1cc(Oc2cc(C(=O)N[C@H](C)c3ccc(C(F)(F)F)nn3)cc(-c3ncc(C)s3)c2)ccn1 [Example 105, 3-[(2-Methylpyridin-4-yl)oxy]-5-(5-methyl-1,3-thiazol-2-yl)-N-{(1R)-1-[6-(trifluoromethyl)pyridazin-3-yl]ethyl}benzamide] | – | 7.41 | –
Cc1cnc(-c2cc(OC3CCOCC3)cc(C(=O)N[C@H](C)c3cnc(C(F)F)nc3)c2)s1 [Example 154, N-{(1R)-1-[2-(difluoromethyl)pyrimidin-5-yl]ethyl}-3-(5-methyl-1,3-thiazol-2-yl)-5-(tetrahydro-2H-pyran-4-yloxy)benzamide] | – | 6.89 | –
